This passage reports IC50 results from US8278304B2, “Substituted 4-hydroxypyrimidine-5-carboxamides” (Merck Sharp & Dohme Corp., priority 2008, dated 2012).

Counter-ions that a name gives are not always drawn. A value given as a limit tells only on which side of the number the result lay.

The experiment concerns the target T1, PHD2 (Homo sapiens, UniProt Q9GZT9).
T1 construct: FLAG-tagged full length PHD2 expressed in and purified from baculovirus-infected Sf9 cells; FLAG; made in house; host or cells: baculovirus-infected Sf9 cells
Nature of the experiment: PHD2 / HIF-1α peptide hydroxylation assay, time resolved fluorescence (VHL complex detection). Conditions: FLAG-tagged full length PHD2; 0.2 μM 2-oxoglutarate, 0.5 μM HIF-1α peptide; read-out: PHD2 Activity (PHD2 binding activity expressed as IC50 (nM)). Type of experiment: biochemical. Here is the method: To each well of a 96-well plate was added 1 μL of test compound in DMSO and 20 μl of assay buffer (50 mM Tris pH 7.4/0.01% Tween-20/0.1 mg/ml bovine serum albumin/10 μM ferrous sulfate/1 mM sodium ascorbate/20 μg/ml catalase) containing 0.15 μg/ml FLAG-tagged full length PHD2 expressed in and purified from baculovirus-infected Sf9 cells. After a 30 min preincubation at room temperature, the enzymatic reactions were initiated by the addition of 4 μL of substrates (final concentrations of 0.2 μM 2-oxoglutarate and 0.5 μM HIF-1α peptide biotinyl-[…]).

What is called IC50 is the concentration at which inhibition is half-maximal.

T1 sequence (Q9GZT9 whole entry): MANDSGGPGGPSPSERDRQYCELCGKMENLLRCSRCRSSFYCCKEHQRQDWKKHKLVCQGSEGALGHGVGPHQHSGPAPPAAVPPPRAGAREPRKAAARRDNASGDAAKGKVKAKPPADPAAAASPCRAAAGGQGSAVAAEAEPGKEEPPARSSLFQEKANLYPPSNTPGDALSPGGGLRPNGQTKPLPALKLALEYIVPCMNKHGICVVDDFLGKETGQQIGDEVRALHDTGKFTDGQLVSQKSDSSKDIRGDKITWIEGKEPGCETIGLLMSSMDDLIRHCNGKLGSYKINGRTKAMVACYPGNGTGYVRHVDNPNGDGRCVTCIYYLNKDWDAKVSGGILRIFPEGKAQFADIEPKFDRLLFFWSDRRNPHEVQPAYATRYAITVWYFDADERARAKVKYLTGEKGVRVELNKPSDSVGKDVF

Turning to `Cc1nc(-c2ncc(C(=O)NCc3cccc(-c4ccccc4)c3)c(O)n2)cs1` [Example 42, N-(biphenyl-3-ylmethyl)-4-hydroxy-2-(2-methyl-1,3-thiazol-4-yl)pyrimidine-5-carboxamide], the IC50 was in the range of 10 to 100 nM.

With `O=C(NC(c1ccccc1)c1ccncc1)c1cnc(-n2cccn2)nc1O` (stereo not drawn) [Example 58, 4-Hydroxy-N-[phenyl(pyridin-4-yl)methyl]-2-(1H-pyrazol-1-yl)pyrimidine-5-carboxamide], the concentration for half-maximal inhibition (IC50) is at most 10 nM.

Take `CC(C)(NC(=O)c1cnc(-c2cc(Br)ccn2)nc1O)c1ccccc1` [Example 1, 2-(4-Bromopyridin-2-yl)-4-hydroxy-N-(1-methyl-1-phenylethyl)pyrimidine-5-carboxamide]: the IC50 was 10 to 100 nM.

For `CC(C)CC(NC(=O)c1cnc(-c2cccnn2)nc1O)c1ccc(C#N)cc1` (single isomer, unassigned) [Example 159, N-[1-(4-cyanophenyl)-3-methylbutyl]-4-hydroxy-2-(pyridazin-3-yl)pyrimidine-5-carboxamide], the IC50 lay within 10 to 100 nM.

Turning to `CCCC(NC(=O)c1cnc(-n2cccn2)nc1O)c1ccc(-c2ccccc2)cc1` (stereo not drawn) [Example 165, N-[1-(biphenyl-4-yl)butyl]-4-hydroxy-2-(1H-pyrazol-1-yl)pyrimidine-5-carboxamide], the IC50 was at most 10 nM.

Take `CC(C)(NC(=O)c1cnc(-n2cccn2)nc1O)c1ccc(F)cc1` [Example 73, N-[1-(4-fluorophenyl)-1-methylethyl]-4-hydroxy-2-(1H-pyrazol-1-yl)pyrimidine-5-carboxamide]: the IC50 was at most 10 nM.

`COc1ccc(C(NC(=O)c2cnc(-c3cccnn3)nc2O)c2ccc(OC)nc2)cc1` (single isomer, unassigned) [Example 190]: the IC50 was at most 10 nM.

On to `Cc1nc(-c2ncc(C(=O)Nc3ccc(C(F)(F)F)cc3)c(O)n2)cs1` [Example 34, 4-Hydroxy-2-(2-methyl-1,3-thiazol-4-yl)-N-[4-(trifluoromethyl)phenyl]pyrimidine-5-carboxamide], for which the IC50 was 1000 to 10000 nM.

For `O=C(NCc1cc(C(F)(F)F)cc(C(F)(F)F)c1)c1cnc(-n2cccn2)nc1O` [Example 65, N-[3,5-bis(trifluoromethyl)benzyl]-4-hydroxy-2-(1H-pyrazol-1-yl)pyrimidine-5-carboxamide], the IC50 was in the range of 100 to 1000 nM.

For `COc1ccc([C@H](C)NC(=O)c2cnc(-n3cc(C)cn3)nc2O)cc1` [Example 134, 4-hydroxy-N-[(1S)-1-(4-methoxyphenyl)ethyl]-2-(4-methyl-1H-pyrazol-1-yl)pyrimidine-5-carboxamide], the half-maximal inhibitory concentration (IC50) is at most 10 nM.

As for `COc1ccc(C(NC(=O)c2cnc(-n3cccn3)nc2O)c2ccc(SC)cc2)cc1` (stereo not drawn) [Example 168, 4-hydroxy-N-{(4-methoxyphenyl)[4-(methylsulfanyl)phenyl]methyl}-2-(1H-pyrazol-1-yl)pyrimidine-5-carboxamide], the half-maximal inhibitory concentration (IC50) is at most 10 nM.

In the case of `O=C(NCc1ccc(-c2ccccc2F)nc1)c1cnc(-n2cccn2)nc1O` [Example 106, N-{[6-(2-fluorophenyl)pyridin-3-yl]methyl}-4-hydroxy-2-(1H-pyrazol-1-yl)pyrimidine-5-carboxamide], the IC50 is at most 10 nM.

Take `O=C(NCc1ccc(C(F)(F)F)cc1)c1cnc(-c2ncccn2)nc1O` [Example 23, 4-Hydroxy-N-[4-(trifluoromethyl)benzyl]-2,2′-bipyrimidine-5-carboxamide]: the IC50 fell in the range of 100 to 1000 nM.

As to `O=C(NCc1ccc(F)cc1)c1cnc(-c2cnccn2)nc1O` [Example 18, N-(4-fluorobenzyl)-4-hydroxy-2-pyrazin-2-ylpyrimidine-5-carboxamide], the IC50 lay in the range of 100 to 1000 nM.

On to `COc1ccc(C(NC(=O)c2cnc(-c3cccnn3)nc2O)c2nc(C)cs2)cc1` (single isomer, unassigned) [Example 144, 4-hydroxy-N-[(4-methoxyphenyl)(4-methyl-1,3-thiazol-2-yl)methyl]-2-(pyridazin-3-yl)pyrimidine-5-carboxamide], for which the IC50 is at most 10 nM.

Take `CC(C)CC(NC(=O)c1cnc(-c2cccnn2)nc1O)c1ccc(C#N)cc1` (single isomer, unassigned) [Example 158, N-[1-(4-cyanophenyl)-3-methylbutyl]-4-hydroxy-2-(pyridazin-3-yl)pyrimidine-5-carboxamide]: the IC50 was at most 10 nM.

`COc1ccc(C(NC(=O)c2cnc(-c3cccnn3)nc2O)c2ccc(SC)cc2)cc1` (stereo not drawn) [Example 178, 4-hydroxy-N-{(4-methoxyphenyl)[4-(methylsulfanyl)phenyl]methyl}-2-(pyridazin-3-yl)pyrimidine-5-carboxamide]: the IC50 is at most 10 nM.

In the case of `CC(C)(NC(=O)c1cnc(-n2cccn2)nc1O)c1ccc(F)c(F)c1` [Example 89, N-[1-(3,4-difluorophenyl)-1-methylethyl]-4-hydroxy-2-(1H-pyrazol-1-yl)pyrimidine-5-carboxamide], the IC50 was at most 10 nM.

Consider `COc1ccc(C(NC(=O)c2cnc(-c3ccccn3)nc2O)c2ccc(OC)cc2)cc1` [Example 14, N-[bis(4-methoxyphenyl)methyl]-4-hydroxy-2-pyridin-2-ylpyrimidine-5-carboxamide], for which the IC50 was at most 10 nM.

For the compound `O=C(NC1CCc2ccccc21)c1cnc(-n2cccn2)nc1O` (stereo not drawn) [Example 57, N-(2,3-dihydro-1H-inden-1-yl)-4-hydroxy-2-(1H-pyrazol-1-yl)pyrimidine-5-carboxamide], the IC50 lay in the range of 10 to 100 nM.

Regarding `C[C@H](NC(=O)c1cnc(-c2cccnn2)nc1O)c1ccc(Oc2ccccc2)cc1` [Example 137, 4-hydroxy-N-[(1S)-1-(4-phenoxyphenyl)ethyl]-2-(pyridazin-3-yl)pyrimidine-5-carboxamide], the IC50 was at most 10 nM.

As to `COc1ccc(C(NC(=O)c2cnc(-c3cccnn3)nc2O)c2cccc(C#N)c2)cc1` (single isomer, unassigned) [Example 148, N-[(3-cyanophenyl)(4-methoxyphenyl)methyl]-4-hydroxy-2-(pyridazin-3-yl)pyrimidine-5-carboxamide], the concentration for half-maximal inhibition (IC50) is at most 10 nM.

Regarding `O=C(N[C@@H]1CONC1=O)c1cnc(-n2cccn2)nc1O` [Example 83, 4-Hydroxy-N-[(4R)-3-oxoisoxazolidin-4-yl]-2-(1H-pyrazol-1-yl)pyrimidine-5-carboxamide], the half-maximal inhibitory concentration (IC50) was in the range of 100 to 1000 nM.

`Cc1nc(-c2ncc(C(=O)NCc3ccc(Cl)cc3Cl)c(O)n2)cs1` [Example 37, N-(2,4-dichlorobenzyl)-4-hydroxy-2-(2-methyl-1,3-thiazol-4-yl)pyrimidine-5-carboxamide]: the half-inhibitory concentration (IC50) is 10 to 100 nM.

`Cc1cccc(-c2ncc(C(=O)NCc3ccc(Cl)cc3Cl)c(O)n2)n1` [Example 17, N-(2,4-dichlorobenzyl)-4-hydroxy-2-(6-methylpyridin-2-yl)pyrimidine-5-carboxamide]: the IC50 lay in the range of 100 to 1000 nM.

On to `Cc1nc(-c2ncc(C(=O)NCc3ccc(-c4ccccc4)cc3)c(O)n2)cs1` [Example 30, N-(biphenyl-4-ylmethyl)-4-hydroxy-2-(2-methyl-1,3-thiazol-4-yl)pyrimidine-5-carboxamide], for which the IC50 lay in the range of 10 to 100 nM.

For the compound `O=C(N[C@H](c1ccccc1)[C@H](O)c1ccccc1)c1cnc(-c2cccnn2)nc1O` [Example 139, 4-hydroxy-N-[(1R,2R)-2-hydroxy-1,2-diphenylethyl]-2-(pyridazin-3-yl)pyrimidine-5-carboxamide], the IC50 is at most 10 nM.

Regarding `CCN(NC(=O)c1cnc(-n2cccn2)nc1O)c1ccccc1` [Example 76, N′-Ethyl-4-hydroxy-N′-phenyl-2-(1H-pyrazol-1-yl)pyrimidine-5-carbohydrazide trifluoroacetate (salt)], the IC50 lay within 10 to 100 nM.

For `O=C(NCc1ccc2c(c1)CCO2)c1cnc(-n2cccn2)nc1O` [Example 101, N-(2,3-dihydro-1-benzofuran-5-ylmethyl)-4-hydroxy-2-(1H-pyrazol-1-yl)pyrimidine-5-carboxamide], the IC50 was at most 10 nM.

Turning to `COc1ccc(C(NC(=O)c2cnc(-c3cccnn3)nc2O)c2ccc(O)cc2)cc1` (single isomer, unassigned) [Example 156, 4-hydroxy-N-[(4-hydroxyphenyl)(4-methoxyphenyl)methyl]-2-(pyridazin-3-yl)pyrimidine-5-carboxamide], the IC50 is at most 10 nM.

Regarding `O=C(NCc1ccc(Br)cc1)c1cnc(-n2cccn2)nc1O` [Example 9, N-(4-bromobenzyl)-4-hydroxy-2-(1H-pyrazol-1-yl)pyrimidine-5-carboxamide], the IC50 was at most 10 nM.

For the compound `CC(NC(=O)c1cnc(-c2ccccn2)nc1O)c1ccc(F)cc1` (stereo not drawn) [Example 12, N-[1-(4-fluorophenyl)ethyl]-4-hydroxy-2-pyridin-2-ylpyrimidine-5-carboxamide], the IC50 was 10 to 100 nM.

For `O=C(NC(c1ccccc1)c1ccccc1)c1cnc(-n2cncn2)nc1O` [Example 46, N-(diphenylmethyl)-4-hydroxy-2-(1H-1,2,4-triazol-1-yl)pyrimidine-5-carboxamide], the IC50 was in the range of 100 to 1000 nM.

For the compound `O=C(NCc1ccc(Cl)cc1Cl)c1cnc(-n2cccn2)nc1O` [Example 51, N-(2,4-dichlorobenzyl)-4-hydroxy-2-(1H-pyrazol-1-yl)pyrimidine-5-carboxamide], the IC50 was at most 10 nM.

For `CC(C)(NC(=O)c1cnc(-n2cccn2)nc1O)c1ccc(C(F)(F)F)nc1` [Example 74, 4-Hydroxy-N-{1-methyl-1-[6-(trifluoromethyl)pyridin-3-yl]ethyl}-2-(1H-pyrazol-1-yl)pyrimidine-5-carboxamide], the IC50 was at most 10 nM.

In the case of `O=C(O)c1ccc(-c2ncc(C(=O)NCc3ccc(F)cc3)c(O)n2)nc1` [Example 3, 6-(5-{[(4-Fluorobenzyl)amino]carbonyl}-4-hydroxypyrimidin-2-yl)nicotinic acid], the concentration for half-maximal inhibition (IC50) lay within 10 to 100 nM.
